Results from publication PMC10477861, “Efficient Mining of Anticancer Peptides from Gut Metagenome” (Advanced Science, 2023).

Key:
Conditions in all cases: 25 µM pACP, 24 h, maintenance medium 1% FBS, ratio of viability to vehicle (PBS), at least three technical repetitions
HT29 = assay: MTT primary screening of anticancer activity, HT29; type: cell-based, Human
Text: (§1) We successfully chemically synthesized 40 pACPs for the purpose of in vitro or in vivo characterization of their potential anticancer efficacy. In the initial step, we conducted an in vitro primary screen of these 40 pACPs using a panel of 16 different cancer cell lines, including four human CRC lines (HT29, Caco2, HCT116, and […]), as well as 12 other cancer models (Table S4, Supporting Information). We deliberately selected a diverse panel of cell lines to assess the effect of pACPs across various genetic backgrounds. Briefly, the cancer cells were cultured in specific media (details provided in the Experimental Section) and then treated with pACPs at a final concentration of 25 µM. Peptides with minimum effective inhibition concentrations >25 µM were considered non‐ACPs. After exposure to pACPs, the survival rate of the cancer cells was measured using the MTT assay. Remarkably, 39 out of the 40 pACPs (97.5%) induced at least 20% inhibition in at least one cell line (Figure 3a and Table S5, Supporting Information). […] Thus, our method successfully identified pACPs with a very high rate of anticancer effects across various cancer cell lines.
(§2) To evaluate the activity of the 40 potentially effective pACPs, a panel of 16 cancer cell lines was treated, including human CRC cell lines (HT29, Caco‐2, HCT116). Details of the cell lines used, respective media, and culture conditions were presented in Table S1 (Supporting Information). Once the cells reached 60% confluence, it was incubated with each candidate peptide at a concentration of 25 µM pACPs for 24 h. Concurrently, the complete medium was replaced with a maintenance medium containing only 1% FBS. Subsequently, the viability of each cell line using the MTT Cell Proliferation and Cytotoxicity Assay Kit according to the manufacturer's instructions was assessed. […] For the CRC cell line CT26, it was calculated the CC50 value using two peptides (pACP1780 and pACP2283) with relevant data presented in Table S6 (Supporting Information). The calculation was performed using an online tool: https://www.aatbio.com/tools/ic50‐calculator.

MDA-MB-468 = assay: MTT primary screening of anticancer activity, MDA-MB-468; type: cell-based
Text: as §1, §2

B16 = assay: MTT primary screening of anticancer activity, B16; type: cell-based, Mouse
Text: as §1, §2

EFM192A = assay: MTT primary screening of anticancer activity, EFM192A; type: cell-based
Text: as §1, §2

T47D = assay: MTT primary screening of anticancer activity, T47D; type: cell-based
Text: as §1, §2

Hela = assay: MTT primary screening of anticancer activity, Hela; type: cell-based, Human
Text: as §1, §2

Caco2 = assay: MTT primary screening of anticancer activity, Caco2; type: cell-based, Human
Text: as §1, §2

BT474 = assay: MTT primary screening of anticancer activity, BT474; type: cell-based
Text: as §1, §2

MDA-MB-436 = assay: MTT primary screening of anticancer activity, MDA-MB-436; type: cell-based
Text: as §1, §2

SK-BR-3 = assay: MTT primary screening of anticancer activity, SK-BR-3; type: cell-based
Text: as §1, §2

MCF7 = assay: MTT primary screening of anticancer activity, MCF7; type: cell-based
Text: as §1, §2

HCT116 = assay: MTT primary screening of anticancer activity, HCT116; type: cell-based, Human
Text: as §1, §2

MDA-MB-231 = assay: MTT primary screening of anticancer activity, MDA-MB-231; type: cell-based
Text: as §1, §2

MDA-MB-453 = assay: MTT primary screening of anticancer activity, MDA-MB-453; type: cell-based
Text: as §1, §2

CT26 = assay: MTT primary screening of anticancer activity, CT26; type: cell-based, Murine
Text: as §1, §2

LCC = assay: MTT primary screening of anticancer activity, LCC; type: cell-based
Text: as §1, §2

Sequence | Survival rate of cancer cells in primary screening (HT29) | Survival rate of cancer cells in primary screening (MDA-MB-468) | Survival rate of cancer cells in primary screening (B16) | Survival rate of cancer cells in primary screening (EFM192A) | Survival rate of cancer cells in primary screening (T47D) | Survival rate of cancer cells in primary screening (Hela) | Survival rate of cancer cells in primary screening (Caco2) | Survival rate of cancer cells in primary screening (BT474) | Survival rate of cancer cells in primary screening (MDA-MB-436) | Survival rate of cancer cells in primary screening (SK-BR-3) | Survival rate of cancer cells in primary screening (MCF7) | Survival rate of cancer cells in primary screening (HCT116) | Survival rate of cancer cells in primary screening (MDA-MB-231) | Survival rate of cancer cells in primary screening (MDA-MB-453) | Survival rate of cancer cells in primary screening (CT26) | Survival rate of cancer cells in primary screening (LCC)
HPGCRKAPGCLCTGVIPSAAIPGTGFEIGGAGCFPLALNCNCATLGKV [pACP631] | 1.00 | 1.00 | 0.76 | 1.00 | 0.79 | 1.00 | 1.00 | 1.00 | 1.00 | 1.00 | 1.00 | 1.00 | 1.00 | 1.00 | 1.00 | 1.00
IPNKKAGSRCLSKKCLLPAKRAFEIHFLTQLTGDIKGI [pACP766] | 0.47 | 1.00 | 1.00 | 1.00 | 0.61 | 0.68 | 0.68 | 0.71 | 0.52 | 1.00 | 0.59 | 1.00 | 1.00 | 1.00 | 1.00 | 1.00
IYRKGTCADCAQGGVCTGHCSNKKTCAALKGVDKIAEDLGRGIK [pACP822] | 1.00 | 1.00 | 0.69 | 1.00 | 0.63 | 1.00 | 1.00 | 1.00 | 1.00 | 1.00 | 0.78 | 1.00 | 1.00 | 1.00 | 1.00 | 1.00
KFCSSFFKSLQFPKAETLVGFKGKALKISNVLIKKSPIIK [pACP860] | 1.00 | 0.60 | 0.77 | 1.00 | 0.75 | 0.78 | 1.00 | 0.70 | 1.00 | 1.00 | 0.78 | 1.00 | 1.00 | 1.00 | 1.00 | 1.00
KGVRGKICKGKRCKQISNSGCDRQEIQEKQENRYRKEKQNKG [pACP886] | 1.00 | 1.00 | 0.78 | 1.00 | 0.69 | 0.73 | 1.00 | 1.00 | 1.00 | 1.00 | 1.00 | 1.00 | 1.00 | 1.00 | 1.00 | 1.00
KSLQMVLSFVIIFADKKKTLATLIVAKKKKGW [pACP1096] | 0.71 | 1.00 | 1.00 | 1.00 | 1.00 | 1.00 | 1.00 | 1.00 | 0.69 | 1.00 | 1.00 | 1.00 | 1.00 | 1.00 | 1.00 | 1.00
LARPDAAPKKQLRRPLRFRQPEWRRISKIHHIPRRFRRA [pACP1156] | 1.00 | 1.00 | 0.78 | 1.00 | 0.74 | 1.00 | 1.00 | 1.00 | 0.74 | 1.00 | 1.00 | 1.00 | 1.00 | 1.00 | 1.00 | 1.00
LLSDFRQYRTKIVRQMRRQIFRQMKQKAE [pACP1210] | 1.00 | 1.00 | 0.76 | 1.00 | 0.65 | 1.00 | 1.00 | 1.00 | 1.00 | 1.00 | 0.79 | 1.00 | 1.00 | 1.00 | 1.00 | 1.00
NFWLSTLTGHGFCAVVSAARAGS [pACP1292] | 1.00 | 1.00 | 1.00 | 0.40 | 0.76 | 1.00 | 1.00 | 1.00 | 0.74 | 1.00 | 0.79 | 1.00 | 1.00 | 1.00 | 1.00 | 1.00
